Experimental data as given in patent publication US11420970B1 (NOVARTIS AG, priority 2019, dated 2022).
Where two headings read alike, the source gives them in different places.

Tests used:
NSD2 [1-1365] = NSD2 [1-1365] (Homo sapiens (Human), UniProt O96028); test: LC-MS/MS-based NSD2 enzymatic assay (SAH production); assay type: biochemical; conditions: read-out: NSD2 IC50
Procedure, shortened: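 Full-length NSD2 [1-1365] (8 nM final) with 1 μM SAM and 400 nM mouse-liver nucleosome in Tris pH 8.0 buffer; inhibitor preincubated 20 min with enzyme/SAM before nucleosome addition. Reaction 90 min at room temperature, TFA-quenched; SAH quantified by LC-MS/MS against d4-SAH internal standard and SAH standard curve.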

[1] = system: cellular H3K36me2 level in thyroid carcinoma cell line CGTH-W-1 (NSD2 E1099K); test: H3K36me2 cellular ELISA assay in CGTH-W-1 line; assay type: cell-based; conditions: Homo sapiens, CGTH-W-1, 72 h, read-out: H3K36me2 ELISA in CGTH-W-1
Procedure: H3K36Me2 Cellular ELISA Assay in CGTH-W-1 Line
An ELISA (enzyme-linked immunosorbent assay) based assay was used to test the ability of candidate compound to reduce cellular H3K36me2 level in thyroid carcinoma cell line CGTH-W-1, carrying NSD2 E1099K gain of function mutation. CGTH-W-1 (DSMZ) cells are maintained in RPM11640 media with 10% FBS and 50 U/ml Penicillin-Streptomycin.
Cells were treated with tested compounds at the desired concentration for 72 hours.
Histone bound plates were washed and blocked with 5% BSA. […] The abundance of H3K36me2 and total H3 was measured by Chemiluminesce on a plate reader. Cell viability was monitored on a parallel seeded plate with CellTiter-Glo reagent (Promega #G7573).

[2] = system: cellular H3K36me2 level in multiple myeloma cell line KMS11 (t(4;14)+); test: H3K36me2 cellular ELISA assay in KMS11-Par line; assay type: cell-based; conditions: Homo sapiens, KMS-11, ELISA, read-out: H3K36me2 ELISA in KMS11-Par
Procedure, shortened: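 KMS11 cells were seeded a day ahead at 1,250 per well in Opti-MEM with B-27/N2, then treated with compound for 72 h. Histones were acid-extracted with 0.4M HCl, and H3K36me2 and total H3 were read by chemiluminescent ELISA. Viability was checked with CellTiter-Glo on a parallel plate in maintenance media.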

[3] = NSD2 biochemical activity, class symbols
[4] = KMS11-Par line (t(4;14)+), 72 hours treatment

Sequence of NSD2 [1-1365] (O96028 whole entry): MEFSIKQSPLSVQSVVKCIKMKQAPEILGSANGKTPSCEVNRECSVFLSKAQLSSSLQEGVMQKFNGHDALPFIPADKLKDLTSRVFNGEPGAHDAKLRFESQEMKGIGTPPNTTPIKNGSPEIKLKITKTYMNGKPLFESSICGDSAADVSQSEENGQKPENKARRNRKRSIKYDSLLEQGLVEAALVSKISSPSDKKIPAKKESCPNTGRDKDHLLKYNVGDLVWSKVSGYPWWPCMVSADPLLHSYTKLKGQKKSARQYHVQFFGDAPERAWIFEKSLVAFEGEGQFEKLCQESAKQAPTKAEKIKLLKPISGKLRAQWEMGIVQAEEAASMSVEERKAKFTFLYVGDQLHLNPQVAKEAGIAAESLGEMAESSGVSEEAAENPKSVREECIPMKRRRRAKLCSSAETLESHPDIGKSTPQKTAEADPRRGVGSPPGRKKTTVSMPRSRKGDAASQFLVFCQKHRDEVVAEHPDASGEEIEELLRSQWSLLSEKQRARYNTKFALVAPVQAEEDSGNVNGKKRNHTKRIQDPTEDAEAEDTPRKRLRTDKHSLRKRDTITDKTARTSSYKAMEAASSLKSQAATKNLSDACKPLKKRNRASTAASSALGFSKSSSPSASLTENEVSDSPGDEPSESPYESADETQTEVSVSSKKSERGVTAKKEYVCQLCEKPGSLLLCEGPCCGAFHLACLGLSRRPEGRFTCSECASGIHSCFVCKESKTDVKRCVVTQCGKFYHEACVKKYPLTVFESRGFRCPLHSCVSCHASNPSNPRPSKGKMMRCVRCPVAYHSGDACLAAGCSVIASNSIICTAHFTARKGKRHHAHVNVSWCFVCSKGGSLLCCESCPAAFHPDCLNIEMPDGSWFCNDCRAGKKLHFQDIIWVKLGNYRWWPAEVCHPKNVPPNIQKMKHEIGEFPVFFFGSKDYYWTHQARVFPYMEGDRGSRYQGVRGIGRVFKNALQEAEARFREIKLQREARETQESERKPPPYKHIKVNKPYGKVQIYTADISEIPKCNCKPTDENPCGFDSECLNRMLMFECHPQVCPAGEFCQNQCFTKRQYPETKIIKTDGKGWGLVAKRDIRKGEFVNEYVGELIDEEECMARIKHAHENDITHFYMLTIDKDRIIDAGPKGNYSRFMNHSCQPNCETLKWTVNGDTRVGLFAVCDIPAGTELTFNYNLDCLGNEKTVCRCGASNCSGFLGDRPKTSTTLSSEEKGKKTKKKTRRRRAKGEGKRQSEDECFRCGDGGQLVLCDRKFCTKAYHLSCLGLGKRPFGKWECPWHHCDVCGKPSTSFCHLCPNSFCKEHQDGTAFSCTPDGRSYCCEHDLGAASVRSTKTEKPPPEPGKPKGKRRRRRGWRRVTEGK

SMILES	IC50 (NSD2 [1-1365]; [3]) [nM]	IC50 [1] [nM]	IC50 [2, 4] [nM]	IC50 (NSD2 [1-1365]) [nM]	IC50 ([2]; KMS11-Par line, 72 hours) [nM]
Nc1ncnc2c1ncn2Cc1cc(-c2ccc(C(F)(F)F)cc2F)ncc1N1CCC[C@](N)([C@@H](O)C(F)F)C1 [Example 141, (R)-1-((R)-3-amino-1-(4-((6-amino-9H-purin-9-yl)methyl)-6-(2-fluoro-4-(trifluoromethyl)phenyl)pyridin-3-yl)piperidin-3-yl)-2,2-difluoroethan-1-ol]	10 to 1000	1150	7700		
COc1ccc(-c2cc(Cn3cnc4c(N)ncnc43)c(N3CCC[C@](N)(c4cccc(Cl)n4)C3)cn2)c(F)c1F [Example 242, (R)-9-((5-(3-amino-3-(6-chloropyridin-2-yl)piperidin-1-yl)-2-(2,3-difluoro-4-methoxyphenyl)pyridin-4-yl)methyl)-9H-purin-6-amine]		2710		10 to 1000	8190
COc1ccc(-c2cc(Cn3cnc4c(N)ncnc43)c(N3CCC[C@](N)([C@H](C)O)C3)cn2)cc1F [Example 92, (S)-1-((R)-3-amino-1-(4-((6-amino-9H-purin-9-yl)methyl)-6-(3-fluoro-4-methoxyphenyl)pyridin-3-yl)piperidin-3-yl)ethan-1-ol]	1 to 10	2110	4890		
COc1ccc(-c2cc(Cn3cnc4c(N)ncnc43)c(N3CCC[C@](N)([C@@H](O)C(F)F)C3)cn2)c(C(F)F)c1 [Example 162, (R)-1-((R)-3-amino-1-(4-((6-amino-9H-purin-9-yl)methyl)-6-(2-(difluoromethyl)-4-methoxyphenyl)pyridin-3-yl)piperidin-3-yl)-2,2-difluoroethan-1-ol]	1 to 10	86	440		
Nc1ncnc2c1ncn2Cc1cc(-c2ccc(Cl)c(F)c2)ncc1N1CCC[C@](N)([C@@H](O)C(F)F)C1 [Example 124, (R)-1-((R)-3-amino-1-(4-((6-amino-9H-purin-9-yl)methyl)-6-(4-chloro-3-fluorophenyl)pyridin-3-yl)piperidin-3-yl)-2,2-difluoroethan-1-ol]	1 to 10	159	848		
Nc1ncnc2c1ncn2Cc1cc(-c2ccc(OC(F)F)cc2F)ncc1N1CCC[C@](N)([C@@H](O)C(F)F)C1 [Example 138, (R)-1-((R)-3-amino-1-(4-((6-amino-9H-purin-9-yl)methyl)-6-(4-(difluoromethoxy)-2-fluorophenyl)pyridin-3-yl)piperidin-3-yl)-2,2-difluoroethan-1-ol]	10 to 1000	132	1570		
Cc1cc(C(F)F)ccc1-c1cc(Cn2cnc3c(N)ncnc32)c(N2CCC[C@](N)([C@@H](O)C(F)F)C2)cn1 [Example 115, (R)-1-((R)-3-amino-1-(4-((6-amino-9H-purin-9-yl)methyl)-6-(4-(difluoromethyl)-2-methylphenyl)pyridin-3-yl)piperidin-3-yl)-2,2-difluoroethan-1-ol]	1 to 10	88	927		
CNC(=O)[C@@]1(N)CCCN(c2cnc(-c3cccc(F)c3)cc2Cn2cnc3c(N)ncnc32)C1 [Example 78, (R)-3-amino-1-(4-((6-amino-9H-purin-9-yl)methyl)-6-(3-fluorophenyl)pyridin-3-yl)-N-methylpiperidine-3-carboxamide]	1 to 10	12	78		
Nc1ncnc2c1ncn2Cc1cc(-c2ccc(F)c(F)c2)ncc1N1CCCC(N)(C(=O)C2CCOCC2)C1 (stereo not drawn) [Example 108, (3-amino-1-(4-((6-amino-9H-purin-9-yl)methyl)-6-(3,4-difluorophenyl)pyridin-3-yl)piperidin-3-yl)(tetrahydro-2H-pyran-4-yl)methanone]	10 to 1000	772	1960		
Nc1ncnc2c1ncn2Cc1cc(-c2cc(F)c(F)cc2F)ncc1N1CCC[C@](N)([C@@H]2COCCO2)C1 [Example 290, 9-((5-((R)-3-amino-3-((R)-1,4-dioxan-2-yl)piperidin-1-yl)-2-(2,4,5-trifluorophenyl)pyridin-4-yl)methyl)-9H-purin-6-amine]		421		10 to 1000	954
Cc1cccc([C@@]2(N)CCCN(c3cnc(-c4ccc(F)c(F)c4)cc3Cn3cnc4c(N)ncnc43)C2)[n+]1[O-] [Example 232, (R)-2-(3-amino-1-(4-((6-amino-9H-purin-9-yl)methyl)-6-(3,4-difluorophenyl)pyridin-3-yl)piperidin-3-yl)-6-methylpyridine 1-oxide]		1470		10 to 1000	7650
Nc1ncnc2c1ncn2Cc1cc(-c2ccc(F)cc2F)ncc1N1CCC[C@](N)([C@H](O)C(F)F)C1 [Example 151, (S)-1-((R)-3-amino-1-(4-((6-amino-9H-purin-9-yl)methyl)-6-(2,4-difluorophenyl)pyridin-3-yl)piperidin-3-yl)-2,2-difluoroethan-1-ol]	10 to 1000	842	4190		
COC1CCC(C(=O)C2(N)CCCN(c3cnc(-c4ccc(F)c(F)c4)cc3Cn3cnc4c(N)ncnc43)C2)C1 (stereo not drawn) [Example 106, (3-amino-1-(4-((6-amino-9H-purin-9-yl)methyl)-6-(3,4-difluorophenyl)pyridin-3-yl)piperidin-3-yl)(3-methoxycyclopentyl)methanone]	10 to 1000	501	1430		
Cc1ccc(-c2cc(Cn3cnc4c(N)ncnc43)c(N3CCCC(N)(c4cccc(Cl)n4)C3)cn2)cn1 (stereo not drawn) [Example 229, 9-((5-(3-amino-3-(6-chloropyridin-2-yl)piperidin-1-yl)-6′-methyl-[2,3′-bipyridin]-4-yl)methyl)-9H-purin-6-amine]		1970		10 to 1000	7490
Nc1ncnc2c1ncn2Cc1cc(-c2cc(F)c(F)cc2F)ncc1N1CCC[C@](N)([C@@H](F)CO)C1 [Example 286, (R)-2-((R)-3-amino-1-(4-((6-amino-9H-purin-9-yl)methyl)-6-(2,4,5-trifluorophenyl)pyridin-3-yl)piperidin-3-yl)-2-fluoroethan-1-ol]		5.9		1 to 10	655
COc1ccc(Cl)nc1[C@@]1(N)CCCN(c2cnc(-c3ccc(F)c(F)c3)cc2Cn2cnc3c(N)ncnc32)C1 [Example 230, (R)-9-((5-(3-amino-3-(6-chloro-3-methoxypyridin-2-yl)piperidin-1-yl)-2-(3,4-difluorophenyl)pyridin-4-yl)methyl)-9H-purin-6-amine]		1650		10 to 1000	9980
Nc1ncnc2c1ncn2Cc1cc(-c2cc(F)c(F)cc2F)ncc1N1CCC[C@](N)(c2cccc(Cl)n2)C1 [Example 237]		825		10 to 1000	2020
Nc1ncnc2c1ncn2Cc1cc(-c2cc(F)c(OC(F)F)cc2F)ncc1N1CCC[C@](N)([C@H](O)C(F)F)C1 [Example 128, (S)-1-((R)-3-amino-1-(4-((6-amino-9H-purin-9-yl)methyl)-6-(4-(difluoromethoxy)-2,5-difluorophenyl)pyridin-3-yl)piperidin-3-yl)-2,2-difluoroethan-1-ol]	1 to 10	60	693		
Nc1ncnc2c1ncn2Cc1cc(-c2ccc(F)c(F)c2)ncc1N1CCC[C@](N)([C@@H](O)C(F)F)C1 [Example 113, (R)-1-((R)-3-amino-1-(4-((6-amino-9H-purin-9-yl)methyl)-6-(3,4-difluorophenyl)pyridin-3-yl)piperidin-3-yl)-2,2-difluoroethan-1-ol]	10 to 1000	145	753		
Nc1ncnc2c1ncn2Cc1cc(-c2ccc(F)c(Cl)c2)ncc1N1CCC[C@](N)([C@@H](O)C(F)F)C1 [Example 122, (R)-1-((R)-3-amino-1-(4-((6-amino-9H-purin-9-yl)methyl)-6-(3-chloro-4-fluorophenyl)pyridin-3-yl)piperidin-3-yl)-2,2-difluoroethan-1-ol]	1 to 10	496	1830		
COc1ccc(-c2cc(Cn3cnc4c(N)ncnc43)c(N3CCC[C@](N)(c4cccc(Cl)n4)C3)cn2)nc1Cl [Example 194, (R)-9-((5-(3-amino-3-(6-chloropyridin-2-yl)piperidin-1-yl)-6′-chloro-5′-methoxy-[2,2′-bipyridin]-4-yl)methyl)-9H-purin-6-amine]		805		10 to 1000	3280
Nc1ncnc2c1ncn2Cc1cc(-c2ccc(F)c(F)c2)ncc1N1CCC[C@](N)([C@@H](F)CO)C1 [Example 285, (R)-2-((R)-3-amino-1-(4-((6-amino-9H-purin-9-yl)methyl)-6-(3,4-difluorophenyl)pyridin-3-yl)piperidin-3-yl)-2-fluoroethan-1-ol]		43.7		1 to 10	885
